The results in this text go back to ChEMBL document CHEMBL4673312, “Optimization of piperidine constructed peptidyl derivatives as proteasome inhibitors” (Bioorg Med Chem, 2021).

The data set is described as follows: in vitro. The following applies: rat, plasma.

What is called half-life is how long it takes for the measured level to halve. High values mean slow decline, low ones rapid decline.

`CC(C)(C)CNC(=O)C[C@H](NC(=O)N1CCC(NC(=O)c2ccc(F)cc2)CC1)C(=O)N[C@@H](CCc1ccccc1)C(=O)NCc1ccccc1Cl` registered a half-life at 2 µM of 1.53 h. Molecule `CC(C)(C)CNC(=O)C[C@H](NC(=O)[C@H](CC(=O)NCC(C)(C)C)NC(=O)N1CCC(C(=O)Nc2cccnc2)CC1)C(=O)NCc1ccccc1Cl` had a half-life at 2 µM of 1.2 h.
